Holding throughout (format): in vivo, Staphylococcus aureus
The subject of one test is MRSA. Put plainly: Phase 2 cSSSI study: cure rate by baseline pathogen. The note with it: MRSA at baseline, TOC. The protocol: (§1) The primary efficacy endpoint was the clinical response in the CE population at TOC, which occurred 20 to 28 days after study enrollment on Day 1. Clinical response was determined by the investigator as part of the end-of-therapy, TOC, and late follow-up procedures by assessing signs and symptoms including fever, pain, tenderness, erythema, induration, edema, purulent drainage, eschar, and devitalized tissue. A clinical response of cure, improvement, failure, or indeterminate was assigned at end-of-therapy and TOC by the investigator based on clinical signs and symptoms. At late follow-up, the investigator could assign the clinical response of relapse in addition to cure, improvement, or indeterminate. Only patients with a clinical response of cure or improvement at TOC were assessed for clinical response at late follow-up.
(§2) Cure was defined as resolution of purulent drainage, pain, edema, fever, erythema, tenderness, and induration. Serous drainage or aspirate and/or granulation tissue could be present. Improvement was defined as resolution of purulent drainage and, in the case of cellulitis, cessation of fever and pain. Residual erythema, edema, pain (in the case of wound or abscess), tenderness, and/or induration could be present as could serous drainage, granulation tissue, eschar, and/or devitalized tissue. Failure included any of the following: presence of purulent drainage (or aspirate) and/or fever; the unanticipated need for abscess drainage or removal of sutures (for treatment of infection)>48 hours after initiation of study therapy; or treatment with nonstudy systemic antibiotic having activity against gram-positive pathogen(s) for the primary infection site or use of topical antibiotics at the site of primary infection 24 hours or more after initiation of study medication therapy.
(§3) Blood and infection site cultures were obtained within three days of enrollment (often done at the time of enrollment). End-of-therapy, TOC, and late follow-up (or at early relapse) cultures were obtained from the infection site if clinically indicated. […] Specimens were cultured and pathogens were identified at each investigative site's certified laboratory. All isolated gram-positive pathogen(s) that were obtained from the infection site at baseline/randomization and up to and including the TOC time point were subcultured and sent to a central laboratory (Covance Clinical Laboratories, Indianapolis, Ind.) for confirmatory identification and susceptibility testing. In cases of discrepancy between the local and the central laboratory, central laboratory results were used.

Another test concerns MSSA. The test is described as above. The conditions noted are these: MSSA at baseline. The protocol: as §1, §2, §3
Test [1] relates to MRSA (S. aureus NRS123 and clinical MRSA strains). The test can be described thus: Neutropenic-mouse thigh infection model. The note with it: for Mean Log CFU/thigh from baseline: 72 h. The protocol:
(§4) Methods: Thigh infection was established for 14 clinical SA isolates (3 MSSA and 11 MRSA; MICs 0.0015 to 2 μg/mL) in neutropenic CD-1 mice (n=3/group) with 5×10^5 colony forming units (CFU) of cells. Single intravenous doses of ORI (0.5 to 40 mg/kg) were tested against one MSSA and one MRSA strain. […] Both thighs were harvested and CFU counts were evaluated after 24 h (single doses) or 72 h (HEQ doses) treatment.
(§5) In vivo studies: All studies were performed in accordance with protocols that were approved by the Institutional Animal Care and Use Committee. Thigh infection was established for 14 clinical S. aureus isolates in neutropenic CD-1 mice (19-21 g, n=3/group) with 5×10^5 colony forming units (CFU) of cells in both thighs. In the single dose-response study, the number of bacteria/thigh was monitored 24 h post-infection (PI). In the human equivalent (HEQ) dose-ranging study, the bacterial titer was determined in mouse thighs at 2, 4, 8, 12, 24, 48 and 72 h PI. Thighs were serially diluted and plated on Baird-Parker agar plates to determine the bacterial titer. The limit of detection was 1.69 Log10 CFU/thigh. Bacterial titer decreases were calculated (compared to starting inoculum) in thighs at 72 h PI for each HEQ dose regimen of ORI.
(§6) Antibiotherapy: 1) In the single dose response study, mice were treated intravenously (IV) with ORI at doses ranging from 0.4 to 40 mg/kg at lh PI. 2) In the HEQ dose-ranging study, starting at 1 h PI, the mice received a multiple IV dose regimen to simulate human drug concentration profile. […]
(§7) Data analysis: The inhibitiory sigmoid Emax model was used to calculate the ED50 of oritavancin (dose resulting in 50% of the maximal bacterial killing) ±95% confidence interval by using the GraphPad Prism software. The statistical calculations to compare bacterial titer from each experimental group were performed according to the Mann-Whitney U test by using StatsDirect software. p-values below 0.05 were considered significant.

For test [2], the system named is MSSA (S. aureus ATCC13709 and clinical MSSA strains). Put plainly: Neutropenic-mouse thigh infection model. The conditions noted are these: for Log kill / Mean Log CFU/thigh from baseline: 72 h; for Log kill: S. aureus ATCC13709; for Mean Log CFU/thigh from baseline: MSSA (3 strains). The protocol:
as §4, §5, §6, §7

Each structure is given as a SMILES string.

For orientation: ED50 means the midpoint of the dose-response relation.

For the molecule `CN[C@H](CC(C)C)C(=O)N[C@H]1C(=O)N[C@@H](CC(N)=O)C(=O)N[C@H]2C(=O)N[C@H]3C(=O)N[C@H](C(=O)N[C@H](C(=O)O)c4cc(O)cc(O)c4-c4cc3ccc4O)[C@H](O[C@H]3C[C@](C)(N)[C@@H](O)[C@H](C)O3)c3ccc(c(Cl)c3)Oc3cc2cc(c3O[C@@H]2O[C@H](CO)[C@@H](O)[C@H](O)[C@H]2O[C@H]2C[C@](C)(NCc3ccc(-c4ccc(Cl)cc4)cc3)[C@@H](O)[C@H](C)O2)Oc2ccc(cc2Cl)[C@H]1O` [Oritavancin, N-(4-(4-chlorophenyl)benzyl)A82846B], the “% of patients cured (cure and improvement)” value was 78.3% with MRSA (200 mg daily dose); 87.0% with MRSA (800 mg infrequent dose); 73.0% with MRSA (1200 mg single dose); 56.5% in the test with MSSA (200 mg daily dose); 68.8% in the test with MSSA (800 mg infrequent dose); 90.9% with MSSA (1200 mg single dose). The “Mean Log CFU/thigh from baseline” value in test [1] (MRSA (3 strains), HEQ dose 100 mg × 3 days) is 0.8 Log CFU/thigh; in test [1] (MRSA (3 strains), HEQ dose 400 mg × 3 days) it was −2.8 Log CFU/thigh; in test [1] (MRSA (11 strains), HEQ dose 200 mg × 3 days) it was −0.9 Log CFU/thigh; in test [1] (MRSA (11 strains), HEQ dose 1200 mg × 1 day) it was −2.8 Log CFU/thigh; in test [2] (HEQ dose 100 mg × 3 days) it was 1.5 Log CFU/thigh; in test [2] (HEQ dose 200 mg × 3 days), −0.1 Log CFU/thigh. The entries for the “Mean Log CFU/thigh from baseline” value in test [2] (HEQ dose 400 mg × 3 days) and in test [2] (HEQ dose 1200 mg × 1 day) were −1.6 Log CFU/thigh and −2.7 Log CFU/thigh, respectively. The 50% effective dose (ED50) in test [1] (Staphylococcus aureus, single IV dose 1 h post-infection, 24 h readout, NRS123 (MRSA), neutropenic CD-1 mice, 95% CI in brackets, read-out: ED50 (dose resulting in 50% of the maximal killing)) is 2.4 mg/kg; in test [2] (Staphylococcus aureus, single IV dose 1 h post-infection, 24 h readout, S. aureus ATCC13709 (MSSA), neutropenic CD-1 mice, 95% CI in brackets, read-out: ED50 (dose resulting in 50% of the maximal killing)), 5.8 mg/kg. Also, the “ED50 (dose resulting in 50% of the maximal killing)” value in test [1] (single IV dose 1 h post-infection, 24 h readout, NRS123 (MRSA), neutropenic CD-1 mice, 95% CI in brackets) was 2.4 (0.8-7.3) mg/kg; in test [2] (single IV dose 1 h post-infection, 24 h readout, S. aureus ATCC13709 (MSSA), neutropenic CD-1 mice, 95% CI in brackets), 5.8 (3.3-10) mg/kg. Besides, the Log kill in test [2] (HEQ dose 200 mg), in test [2] (HEQ dose 400 mg) and in test [2] (HEQ dose 1200 mg) was greater than 2 Log throughout.

Source of the values: US8420592B2, “Methods of treatment using single doses of oritavancin” (The Medicines Company, priority 2008, dated 2013).
